# Measured values taken from PubChem BioAssay (NCI).
#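 Tested at 5 concentrations; 48 h exposure; 96-well plates; endpoints linearly interpolated, else capped at highest concentration. TGI is the concentration that stops growth completely.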
# Assays:
# Test in all cases: NCI tumour cell line growth inhibition, 48 h
# CCRF-CEM leukemia = test system: CCRF-CEM leukemia
# NCI/ADR-RES ovarian = test system: NCI/ADR-RES ovarian
# RPMI-8226 leukemia = test system: RPMI-8226 leukemia
# SK-MEL-28 melanoma = test system: SK-MEL-28 melanoma
# PC-3 prostate = test system: PC-3 prostate
# UO-31 renal = test system: UO-31 renal
# COLO 205 colon = test system: COLO 205 colon
# MDA-MB-435 = test system: MDA-MB-435
# A498 renal = test system: A498 renal
# SNB-75 CNS = test system: SNB-75 CNS
# IGROV1 ovarian = test system: IGROV1 ovarian
# SF-539 CNS = test system: SF-539 CNS
# CAKI-1 renal = test system: CAKI-1 renal
# OVCAR-5 ovarian = test system: OVCAR-5 ovarian
# HOP-62 NSCLC = test system: HOP-62 NSCLC
# MDA-MB-231 breast = test system: MDA-MB-231 breast
# MCF7 breast = test system: MCF7 breast
# SK-MEL-2 melanoma = test system: SK-MEL-2 melanoma
# OVCAR-3 ovarian = test system: OVCAR-3 ovarian
# 786-0 renal = test system: 786-0 renal
# NCI-H522 lung = test system: NCI-H522 lung
# KM12 colon = test system: KM12 colon
# UACC-257 melanoma = test system: UACC-257 melanoma
# SN12C renal = test system: SN12C renal
# U251 CNS = test system: U251 CNS
# HCC-2998 colon = test system: HCC-2998 colon
# SF-268 CNS = test system: SF-268 CNS
# SK-OV-3 ovarian = test system: SK-OV-3 ovarian
# HT29 colon = test system: HT29 colon
# M14 melanoma = test system: M14 melanoma
# EKVX NSCLC = test system: EKVX NSCLC
# NCI-H226 lung = test system: NCI-H226 lung
# HCT-116 colon = test system: HCT-116 colon
# SF-295 CNS = test system: SF-295 CNS
# T-47D breast = test system: T-47D breast
# SR leukemia = test system: SR leukemia
# MOLT-4 leukemia = test system: MOLT-4 leukemia
# SK-MEL-5 melanoma = test system: SK-MEL-5 melanoma
# A549 NSCLC = test system: A549 NSCLC
# HCT-15 colon = test system: HCT-15 colon
# MALME-3M melanoma = test system: MALME-3M melanoma
# HS 578T breast = test system: HS 578T breast
# ACHN renal = test system: ACHN renal
# MDA-N = test system: MDA-N
# NCI-H23 lung = test system: NCI-H23 lung
# SW-620 colon = test system: SW-620 colon
# HOP-92 NSCLC = test system: HOP-92 NSCLC
# DU-145 prostate = test system: DU-145 prostate
# NCI-H460 lung = test system: NCI-H460 lung
# UACC-62 melanoma = test system: UACC-62 melanoma
# OVCAR-4 ovarian = test system: OVCAR-4 ovarian
# BT-549 breast = test system: BT-549 breast
# OVCAR-8 ovarian = test system: OVCAR-8 ovarian
# K-562 leukemia = test system: K-562 leukemia
# TK-10 renal = test system: TK-10 renal
# SNB-19 CNS = test system: SNB-19 CNS
# LOX IMVI melanoma = test system: LOX IMVI melanoma
# HL-60(TB) leukemia = test system: HL-60(TB) leukemia
# RXF 393 renal = test system: RXF 393 renal
smiles,measurement,setting,value
CN(C)CC1CCC/C(=C\c2ccc(Cl)cc2)C1=O (stereo unspecified),TGI,CCRF-CEM leukemia,3.39 µM
same,TGI,NCI/ADR-RES ovarian,18.9 µM
same,TGI,RPMI-8226 leukemia,> 100 µM
same,TGI,SK-MEL-28 melanoma,9.04 µM
same,TGI,PC-3 prostate,8 µM
same,TGI,UO-31 renal,4.52 µM
same,TGI,COLO 205 colon,4.82 µM
same,TGI,MDA-MB-435,9.22 µM
same,TGI,A498 renal,31.1 µM
same,TGI,SNB-75 CNS,14.9 µM
same,TGI,IGROV1 ovarian,8.62 µM
same,TGI,SF-539 CNS,29.1 µM
same,TGI,CAKI-1 renal,3.72 µM
same,TGI,OVCAR-5 ovarian,35.6 µM
same,TGI,HOP-62 NSCLC,34.2 µM
same,TGI,MDA-MB-231 breast,9.21 µM
same,TGI,MCF7 breast,3.38 µM
same,TGI,SK-MEL-2 melanoma,2.05 µM
same,TGI,OVCAR-3 ovarian,12.1 µM
same,TGI,786-0 renal,3.22 µM
same,TGI,NCI-H522 lung,3.27 µM
same,TGI,KM12 colon,3.46 µM
same,TGI,UACC-257 melanoma,12.3 µM
same,TGI,SN12C renal,8.55 µM
same,TGI,U251 CNS,9.08 µM
same,TGI,HCC-2998 colon,18.1 µM
same,TGI,SF-268 CNS,8.33 µM
same,TGI,SK-OV-3 ovarian,23.2 µM
same,TGI,HT29 colon,> 32.7 µM
same,TGI,M14 melanoma,6.15 µM
same,TGI,EKVX NSCLC,25.7 µM
same,TGI,NCI-H226 lung,28.8 µM
same,TGI,HCT-116 colon,3.55 µM
same,TGI,SF-295 CNS,29.2 µM
same,TGI,T-47D breast,13.4 µM
same,TGI,SR leukemia,> 100 µM
same,TGI,MOLT-4 leukemia,> 21.7 µM
same,TGI,SK-MEL-5 melanoma,12.3 µM
same,TGI,A549 NSCLC,32.4 µM
same,TGI,HCT-15 colon,4.86 µM
same,TGI,MALME-3M melanoma,4.76 µM
same,TGI,HS 578T breast,12.3 µM
same,TGI,ACHN renal,7.04 µM
same,TGI,MDA-N,5.17 µM
same,TGI,NCI-H23 lung,22.5 µM
same,TGI,SW-620 colon,4.08 µM
same,TGI,HOP-92 NSCLC,10.5 µM
same,TGI,DU-145 prostate,29.1 µM
same,TGI,NCI-H460 lung,43.3 µM
same,TGI,UACC-62 melanoma,4.5 µM
same,TGI,OVCAR-4 ovarian,8.94 µM
same,TGI,BT-549 breast,3.45 µM
same,TGI,OVCAR-8 ovarian,17.4 µM
same,TGI,K-562 leukemia,4.89 µM
same,TGI,TK-10 renal,10 µM
same,TGI,SNB-19 CNS,26.5 µM
same,TGI,LOX IMVI melanoma,3.25 µM
Cc1nn(C(=O)c2ccc(Cl)cc2)c2c1C(/C=C/c1ccccc1)SC(N)=N2 (stereo unspecified),TGI,CCRF-CEM leukemia,> 10 µM
same,TGI,NCI/ADR-RES ovarian,> 10 µM
same,TGI,RPMI-8226 leukemia,> 10 µM
same,TGI,SK-MEL-28 melanoma,> 10 µM
same,TGI,PC-3 prostate,> 10 µM
same,TGI,HL-60(TB) leukemia,> 10 µM
same,TGI,COLO 205 colon,> 10 µM
same,TGI,MDA-MB-435,> 10 µM
same,TGI,SNB-75 CNS,> 10 µM
same,TGI,IGROV1 ovarian,> 10 µM
same,TGI,SF-539 CNS,> 10 µM
same,TGI,CAKI-1 renal,> 10 µM
same,TGI,OVCAR-5 ovarian,> 10 µM
same,TGI,HOP-62 NSCLC,> 10 µM
same,TGI,MDA-MB-231 breast,> 10 µM
same,TGI,MCF7 breast,> 10 µM
same,TGI,SK-MEL-2 melanoma,> 10 µM
same,TGI,OVCAR-3 ovarian,> 10 µM
same,TGI,786-0 renal,> 10 µM
same,TGI,NCI-H522 lung,> 10 µM
same,TGI,KM12 colon,> 10 µM
same,TGI,UACC-257 melanoma,> 10 µM
same,TGI,SN12C renal,> 10 µM
same,TGI,U251 CNS,> 10 µM
same,TGI,RXF 393 renal,> 10 µM
same,TGI,HCC-2998 colon,> 10 µM
same,TGI,SF-268 CNS,> 10 µM
same,TGI,SK-OV-3 ovarian,> 10 µM
same,TGI,HT29 colon,> 10 µM
same,TGI,M14 melanoma,> 10 µM
same,TGI,EKVX NSCLC,> 10 µM
same,TGI,NCI-H226 lung,> 10 µM
same,TGI,HCT-116 colon,> 10 µM
same,TGI,SF-295 CNS,> 10 µM
same,TGI,T-47D breast,> 10 µM
same,TGI,SR leukemia,> 10 µM
same,TGI,MOLT-4 leukemia,> 10 µM
same,TGI,SK-MEL-5 melanoma,> 10 µM
same,TGI,A549 NSCLC,> 10 µM
same,TGI,HCT-15 colon,> 10 µM
same,TGI,MALME-3M melanoma,> 10 µM
same,TGI,HS 578T breast,> 10 µM
same,TGI,ACHN renal,> 10 µM
same,TGI,MDA-N,> 10 µM
same,TGI,NCI-H23 lung,> 10 µM
same,TGI,SW-620 colon,> 10 µM
same,TGI,HOP-92 NSCLC,> 10 µM
same,TGI,DU-145 prostate,> 10 µM
same,TGI,NCI-H460 lung,> 10 µM
same,TGI,UACC-62 melanoma,> 10 µM
same,TGI,OVCAR-4 ovarian,> 10 µM
same,TGI,BT-549 breast,> 10 µM
same,TGI,OVCAR-8 ovarian,> 10 µM
same,TGI,K-562 leukemia,> 10 µM
same,TGI,TK-10 renal,> 10 µM
same,TGI,SNB-19 CNS,> 10 µM
same,TGI,LOX IMVI melanoma,> 10 µM
O=C(CCc1cc(O)ccc1O)OCCc1ccccc1,TGI,CCRF-CEM leukemia,1.94 µM
same,TGI,NCI/ADR-RES ovarian,> 100 µM
same,TGI,RPMI-8226 leukemia,> 23.2 µM
same,TGI,SK-MEL-28 melanoma,78.7 µM
same,TGI,PC-3 prostate,18.5 µM
same,TGI,HL-60(TB) leukemia,5.92 µM
same,TGI,UO-31 renal,18.7 µM
same,TGI,COLO 205 colon,22.6 µM
same,TGI,MDA-MB-435,24.5 µM
same,TGI,A498 renal,> 100 µM
same,TGI,SNB-75 CNS,> 100 µM
same,TGI,IGROV1 ovarian,22.3 µM
same,TGI,SF-539 CNS,14.9 µM
same,TGI,CAKI-1 renal,27.2 µM
same,TGI,OVCAR-5 ovarian,> 52.1 µM
same,TGI,HOP-62 NSCLC,> 100 µM
same,TGI,MDA-MB-231 breast,42.7 µM
same,TGI,MCF7 breast,57.3 µM
same,TGI,SK-MEL-2 melanoma,> 100 µM
same,TGI,786-0 renal,24.5 µM
same,TGI,NCI-H522 lung,1.78 µM
same,TGI,KM12 colon,> 80.6 µM
same,TGI,UACC-257 melanoma,28.9 µM
same,TGI,SN12C renal,44.9 µM
same,TGI,U251 CNS,29.1 µM
same,TGI,RXF 393 renal,25.9 µM
same,TGI,HCC-2998 colon,> 80.7 µM
same,TGI,SF-268 CNS,> 50.5 µM
same,TGI,SK-OV-3 ovarian,> 100 µM
same,TGI,HT29 colon,> 100 µM
same,TGI,M14 melanoma,> 61.6 µM
same,TGI,EKVX NSCLC,61.9 µM
same,TGI,NCI-H226 lung,> 76.3 µM
same,TGI,HCT-116 colon,27.3 µM
same,TGI,SF-295 CNS,> 100 µM
same,TGI,T-47D breast,64.8 µM
same,TGI,SR leukemia,> 100 µM
same,TGI,MOLT-4 leukemia,> 21 µM
same,TGI,SK-MEL-5 melanoma,> 55.6 µM
same,TGI,A549 NSCLC,> 100 µM
same,TGI,HCT-15 colon,27.2 µM
same,TGI,MALME-3M melanoma,23.5 µM
same,TGI,HS 578T breast,67.7 µM
same,TGI,ACHN renal,18.4 µM
same,TGI,MDA-N,26.9 µM
same,TGI,NCI-H23 lung,> 90.8 µM
same,TGI,SW-620 colon,42.2 µM
same,TGI,HOP-92 NSCLC,13 µM
same,TGI,DU-145 prostate,41.2 µM
same,TGI,NCI-H460 lung,> 100 µM
same,TGI,UACC-62 melanoma,33.9 µM
same,TGI,OVCAR-4 ovarian,32.5 µM
same,TGI,BT-549 breast,26.6 µM
same,TGI,OVCAR-8 ovarian,> 57.6 µM
same,TGI,K-562 leukemia,30.9 µM
same,TGI,TK-10 renal,27.8 µM
same,TGI,SNB-19 CNS,> 100 µM
